One assay concerns PANC-1 and Fadu cells. The assay is described as follows: CellTiter-Glo viability, statements covering both cancer cell lines. To be noted: for viability at 25 µM: Homo sapiens, in either of the cancer cell lines, read-out: drop in viability at 25 µM. Format: cell-based, human. Background: In ATP-based viability assays light output follows the ATP content of the culture.
The test system of another assay is Fadu cells. The assay is described as follows: CellTiter-Glo luminescent cell viability assay, Fadu. The following applies: Homo sapiens, FaDu, 72 h, 72 h, mean ± SD, n = 2; for viability at 2.8 µM: read-out: Cell Viability (% of Control) 2.8 µM, Fadu; for viability at 8.3 µM: read-out: Cell Viability (% of Control) 8.3 µM, Fadu; for viability at 25 µM: read-out: Cell Viability (% of Control) 25 µM, Fadu.

In a further assay the test system is PANC-1 cells. The assay can be described thus: CellTiter-Glo luminescent cell viability assay, PANC-1. The following applies: Homo sapiens, PANC-1, 72 h, 72 h, mean ± SD, n = 2; for viability at 2.8 µM: read-out: Cell Viability (% of Control) 2.8 µM, PANC-1; for viability at 8.3 µM: read-out: Cell Viability (% of Control) 8.3 µM, PANC-1; for viability at 25 µM: read-out: Cell Viability (% of Control) 25 µM, PANC-1.

Read-outs that look alike come from different tables or passages of the source.

Experimental for PANC-1 and Fadu cells: The effects of the synthesized compounds on cell viability were measured using the CellTiter-Glo® luminescent cell viability assay (Promega, Madison, WI, USA), according to the manufacturer’s instructions. […] After seeding, cells were incubated for a further 48 h before treatment. Cells were treated with the compounds for 72 h. […] After treatment, the luminescence signal was recorded using a microplate reader (BioTek Synergy 2 Multi-Mode Reader, BioTek, Winooski, VT, USA).

With `NCC#Cc1cccc(CN2C(=O)C3=C(CCN(Cc4cccc(-n5cc(-c6ccccc6)nn5)c4)C3)N3CCN=C23)c1` [4b], the viability (commonly a read-out of living cells in per cent, often relative to untreated cells) at 25 µM in the assay on PANC-1 and Fadu cells was in the range of 0 to 1%. Also, in the assay on Fadu cells (first-set screening), the viability at 2.8 µM turned out to be 76 ± 1%, the viability at 8.3 µM turned out to be 34 ± 3% and the viability at 25 µM came out at 0%. Further, in the assay with PANC-1 cells (first-set screening), the viability at 2.8 µM was found to be 87 ± 5%, the viability at 8.3 µM was determined as 70% and the viability at 25 µM stood at 0%.

For `NCC#Cc1cccc(CN2C(=O)C3=C(CCN(Cc4ccc(-n5cc(-c6ccccc6)nn5)cc4)C3)N3CCN=C23)c1` [2b], the “eradication of cancer cells at 8.3 µM” value in the assay with PANC-1 and Fadu cells (8.3 µM, both PANC-1 and Fadu, first-set screening) is given as “practically complete eradication of both types of cancer cells”. The viability at 25 µM in the assay with PANC-1 and Fadu cells is 0 to 1%; in the assay on Fadu cells (first-set screening) it was 0%; in the assay with Fadu cells (second-set screening), 0%; in the assay on PANC-1 cells (first-set screening), 0%; in the assay with PANC-1 cells (second-set screening), 0%. Besides, the viability at 2.8 µM in the assay with Fadu cells (first-set screening) is 102 ± 8%; in the assay on Fadu cells (second-set screening), 117 ± 7%; in the assay on PANC-1 cells (first-set screening), 107 ± 1%; with PANC-1 cells (second-set screening) it was 113 ± 3%. Besides, the viability at 8.3 µM in the assay with Fadu cells (first-set screening) came out at 0%; in the assay on Fadu cells (second-set screening), 27 ± 12%; in the assay on PANC-1 cells (first-set screening), 0%; in the assay on PANC-1 cells (second-set screening) it was 0%.

The record behind these values is publication PMC11642016 (International Journal of Molecular Sciences, 2024).
